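Growth conditions: 96-well plates. Treatment: test compound, 48 hours, 5 concentrations. Analysis: linear interpolation between bracketing concentrations; unreached endpoints set to highest concentration. GI50: concentration for 50% inhibition of growth. The concentration for full growth arrest is given as TGI.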
Experiments:
Test in all cases: NCI anticancer screen, dose series, 48 h
[1] = system: T-47D breast
[2] = system: MCF7 breast
[3] = system: A549 NSCLC
[4] = system: NCI-H226 lung
[5] = system: LOX IMVI melanoma
[6] = system: CCRF-CEM leukemia
[7] = system: SNB-75 CNS
[8] = system: NCI-H522 lung
[9] = system: EKVX NSCLC
[10] = system: HL-60(TB) leukemia
[11] = system: UACC-257 melanoma
[12] = system: COLO 205 colon
[13] = system: HCT-15 colon
[14] = system: CAKI-1 renal
[15] = system: HCT-116 colon
[16] = system: SK-MEL-2 melanoma
[17] = system: KM12 colon
[18] = system: SK-MEL-28 melanoma
[19] = system: U251 CNS
[20] = system: SF-539 CNS
[21] = system: HOP-62 NSCLC
[22] = system: BT-549 breast
[23] = system: OVCAR-4 ovarian
[24] = system: TK-10 renal
[25] = system: OVCAR-8 ovarian
[26] = system: PC-3 prostate
[27] = system: RXF 393 renal
[28] = system: SW-620 colon
[29] = system: HS 578T breast
[30] = system: SK-OV-3 ovarian
[31] = system: SNB-19 CNS
[32] = system: OVCAR-5 ovarian
[33] = system: SN12C renal
[34] = system: NCI-H460 lung
[35] = system: MDA-MB-231 breast
[36] = system: SF-295 CNS
[37] = system: MALME-3M melanoma
[38] = system: SK-MEL-5 melanoma
[39] = system: HOP-92 NSCLC
[40] = system: 786-0 renal
[41] = system: UACC-62 melanoma
[42] = system: HCC-2998 colon
[43] = system: SF-268 CNS
[44] = system: A498 renal
[45] = system: NCI/ADR-RES ovarian
[46] = system: IGROV1 ovarian
[47] = system: M14 melanoma
[48] = system: HT29 colon
[49] = system: ACHN renal
[50] = system: RPMI-8226 leukemia
[51] = system: UO-31 renal
[52] = system: MDA-MB-435
[53] = system: K-562 leukemia
[54] = system: DU-145 prostate

## CS(=O)(=O)c1nccc(-c2c(-c3cccc(OCc4ccc(Cl)c(C(F)(F)F)c4)c3)nc3sccn23)n1
[1]
  GI50: 881 nM
  TGI: 1820 nM
[2]
  GI50: 937 nM
  TGI: 1980 nM
[3]
  GI50: 18.1 µM
  TGI: > 50 µM
[4]
  GI50: 2.4 µM
  TGI: 11.9 µM
[5]
  GI50: 809 nM
  TGI: 1630 nM
[6]
  GI50: 1670 nM
  TGI: > 50 µM
[7]
  GI50: 6.74 µM
  TGI: 17.9 µM
[8]
  GI50: 1650 nM
  TGI: 8.06 µM
[9]
  GI50: 6.92 µM
  TGI: 14.4 µM
[10]
  GI50: 997 nM
  TGI: 2520 nM
[11]
  GI50: 4040 nM
  TGI: 10.8 µM
[12]
  GI50: 7.02 µM
  TGI: 13.9 µM
[13]
  GI50: 1020 nM
  TGI: 2420 nM
[14]
  GI50: 7.54 µM
  TGI: 14.7 µM
[15]
  GI50: 6.53 µM
  TGI: 12.9 µM
[16]
  GI50: 3310 nM
  TGI: 9.61 µM
[17]
  GI50: 9.47 µM
  TGI: 17.8 µM
[18]
  GI50: 6.48 µM
  TGI: 13.1 µM
[19]
  GI50: 7.53 µM
  TGI: 14.4 µM
[20]
  GI50: 7.64 µM
  TGI: 15 µM
[21]
  GI50: 7.26 µM
  TGI: 14.1 µM
[22]
  GI50: 1520 nM
  TGI: 5.51 µM
[23]
  GI50: 6.46 µM
  TGI: 13.8 µM
[24]
  GI50: 7.99 µM
  TGI: 14.9 µM
[25]
  GI50: 7.09 µM
  TGI: 13.8 µM
[26]
  GI50: 1800 nM
  TGI: 6.61 µM
[27]
  GI50: 4.31 µM
  TGI: 10.9 µM
[28]
  GI50: 1790 nM
  TGI: 6.84 µM
[29]
  GI50: 1690 nM
  TGI: 8.73 µM
[30]
  GI50: 10.3 µM
  TGI: 33.7 µM
[31]
  GI50: 6.53 µM
  TGI: 13 µM
[32]
  GI50: 8.78 µM
  TGI: 18.8 µM
[33]
  GI50: 7.07 µM
  TGI: 23.1 µM
[34]
  GI50: 2000 nM
  TGI: 7.28 µM
[35]
  GI50: 1070 nM
  TGI: 2380 nM
[36]
  GI50: 7.15 µM
  TGI: 15.2 µM
[37]
  GI50: 7.27 µM
  TGI: 14.6 µM
[38]
  GI50: 7.98 µM
  TGI: 14.9 µM
[39]
  GI50: 2170 nM
  TGI: 9.74 µM
[40]
  GI50: 8.45 µM
  TGI: 15.3 µM
[41]
  GI50: 8.49 µM
  TGI: 16.9 µM
[42]
  GI50: 910 nM
  TGI: 1680 nM
[43]
  GI50: 8.49 µM
  TGI: 17.6 µM
[44]
  GI50: 7.15 µM
  TGI: 13.8 µM
[45]
  GI50: 9 µM
  TGI: 19.1 µM
[46]
  GI50: 1640 nM
  TGI: 5.95 µM
[47]
  GI50: 6.93 µM
  TGI: 14.1 µM
[48]
  GI50: 7.99 µM
  TGI: 16.3 µM
[49]
  GI50: 5.6 µM
  TGI: 11.6 µM
[50]
  GI50: 1330 nM
  TGI: 3.64 µM
[51]
  GI50: 7.16 µM
  TGI: 13.7 µM
[52]
  GI50: 9.02 µM
  TGI: 17.9 µM
[53]
  GI50: 2100 nM
  TGI: > 50 µM
[54]
  GI50: 5.01 µM
  TGI: 10.8 µM

## Nc1nc(N)c2c(n1)NC(c1ccccc1)CC(c1ccc(Nc3nc(NCCO)nc(Nc4ccc(Cl)cc4)n3)cc1)=N2 (configuration not stated)
[1]
  GI50: 1520 nM
  TGI: 3320 nM
[2]
  GI50: 1510 nM
  TGI: 3040 nM
[3]
  GI50: 2.84 µM
  TGI: 9.18 µM
[4]
  GI50: 11.5 µM
  TGI: 31.3 µM
[5]
  GI50: 1540 nM
  TGI: 2950 nM
[7]
  GI50: 1.56 µM
  TGI: 3.13 µM
[8]
  GI50: 1790 nM
  TGI: 3.48 µM
[9]
  GI50: 1.64 µM
  TGI: 3.17 µM
[10]
  GI50: 319 nM
  TGI: 1480 nM
[11]
  GI50: 1900 nM
  TGI: 3.49 µM
[12]
  GI50: 1.79 µM
  TGI: 3.31 µM
[13]
  GI50: 1380 nM
  TGI: 2840 nM
[14]
  GI50: 2.3 µM
  TGI: 5.79 µM
[15]
  GI50: 1.51 µM
  TGI: 2.84 µM
[16]
  GI50: 1380 nM
  TGI: 2.78 µM
[17]
  GI50: 1.9 µM
  TGI: 3.54 µM
[18]
  GI50: 1.73 µM
  TGI: 3.12 µM
[19]
  GI50: 1.53 µM
  TGI: 2.99 µM
[20]
  GI50: 1.6 µM
  TGI: 3.06 µM
[21]
  GI50: 1.74 µM
  TGI: 3.24 µM
[22]
  GI50: 1770 nM
  TGI: 3.2 µM
[23]
  GI50: 1.72 µM
  TGI: 3.76 µM
[24]
  GI50: 2.09 µM
  TGI: 3.87 µM
[25]
  GI50: 1.46 µM
  TGI: 3.1 µM
[28]
  GI50: 1870 nM
  TGI: 3.48 µM
[29]
  GI50: 1980 nM
  TGI: 5.15 µM
[30]
  GI50: 17.7 µM
  TGI: 32 µM
[31]
  GI50: 1.58 µM
  TGI: 2.99 µM
[32]
  GI50: 1.94 µM
  TGI: 3.75 µM
[33]
  GI50: 1.74 µM
  TGI: 3.54 µM
[34]
  GI50: 1850 nM
  TGI: 3.47 µM
[35]
  GI50: 1750 nM
  TGI: 3480 nM
[36]
  GI50: 1.57 µM
  TGI: 2.97 µM
[38]
  GI50: 1.42 µM
  TGI: 2.72 µM
[39]
  GI50: 1420 nM
  TGI: 3.09 µM
[40]
  GI50: 1.63 µM
  TGI: 3.08 µM
[41]
  GI50: 1.84 µM
  TGI: 3.32 µM
[42]
  GI50: 1680 nM
  TGI: 3100 nM
[44]
  GI50: 1.54 µM
  TGI: 3.03 µM
[45]
  GI50: 4.33 µM
  TGI: > 100 µM
[46]
  GI50: 1560 nM
  TGI: 3.13 µM
[47]
  GI50: 1.84 µM
  TGI: 3.35 µM
[48]
  GI50: 1.77 µM
  TGI: 3.33 µM
[49]
  GI50: 1.95 µM
  TGI: 4.36 µM
[51]
  GI50: 1.87 µM
  TGI: 4.29 µM
[52]
  GI50: 1.74 µM
  TGI: 3.17 µM
[54]
  GI50: 1.8 µM
  TGI: 3.38 µM
